Reference: patent US12435059B2, “AMP-activated protein kinase inhibitors and methods of making and using the same” (The Regents of the University of Colorado, priority 2019, dated 2025)
Where two headings read alike, the source gives them in different places.

Assays:
Assay in all cases: biochemical
Type in all cases: binding
468 kinases [1] = target: 468 kinases (Homo sapiens, UniProt O14733); settings: MKK7; read-out: % Inhibition @ 100 nM
468 kinases [2] = target: 468 kinases (Homo sapiens, UniProt O14757); settings: CHEK1; read-out: % Inhibition @ 100 nM
468 kinases [3] = target: 468 kinases (Homo sapiens, UniProt O15197); settings: EPHB6; read-out: % Inhibition @ 100 nM
468 kinases [4] = target: 468 kinases (Homo sapiens, UniProt O43353); settings: RIPK2; read-out: % Inhibition @ 100 nM
468 kinases [5] = target: 468 kinases (Homo sapiens, UniProt P00533); settings: EGFR; read-out: % Inhibition @ 100 nM
468 kinases [6] = target: 468 kinases (Homo sapiens, UniProt P00533, G719C); settings: EGFR(G719C); read-out: % Inhibition @ 100 nM
468 kinases [7] = target: 468 kinases (Homo sapiens, UniProt P07949, V804L); settings: RET(V804L); read-out: % Inhibition @ 100 nM
468 kinases [8] = target: 468 kinases (Homo sapiens, UniProt P10721, V559D/V654A); settings: KIT(V559D,V654A); read-out: % Inhibition @ 100 nM
468 kinases [9] = target: 468 kinases (Homo sapiens, UniProt P29597); settings: read-out: % Inhibition @ 100 nM
468 kinases [10] = target: 468 kinases (Homo sapiens, UniProt P31751); settings: AKT2; read-out: % Inhibition @ 100 nM
468 kinases [11] = target: 468 kinases (Homo sapiens, UniProt P33981); settings: TTK; read-out: % Inhibition @ 100 nM
468 kinases [12] = target: 468 kinases (Homo sapiens, UniProt P36507); settings: MEK2; read-out: % Inhibition @ 100 nM
468 kinases [13] = target: 468 kinases (Homo sapiens, UniProt P36888, N841I); settings: FLT3(N841I); read-out: % Inhibition @ 100 nM
468 kinases [14] = target: 468 kinases (Homo sapiens, UniProt P36894); settings: BMPR1A; read-out: % Inhibition @ 100 nM
468 kinases [15] = target: 468 kinases (Homo sapiens, UniProt P42336, E545K); settings: PIK3CA(E545K); read-out: % Inhibition @ 100 nM
468 kinases [16] = target: 468 kinases (Homo sapiens, UniProt P49841); settings: GSK3B; read-out: % Inhibition @ 100 nM
468 kinases [17] = target: 468 kinases (Homo sapiens, UniProt Q02779); settings: MLK2; read-out: % Inhibition @ 100 nM
468 kinases [18] = target: 468 kinases (Homo sapiens, UniProt Q08881); settings: ITK; read-out: % Inhibition @ 100 nM
468 kinases [19] = target: 468 kinases (Homo sapiens, UniProt Q13177); settings: PAK2; read-out: % Inhibition @ 100 nM
468 kinases [20] = target: 468 kinases (Homo sapiens, UniProt Q13627); settings: DYRK1A; read-out: % Inhibition @ 100 nM
468 kinases [21] = target: 468 kinases (Homo sapiens, UniProt Q14004); settings: read-out: % Inhibition @ 100 nM, CDC2L5
468 kinases [22] = target: 468 kinases (Homo sapiens, UniProt Q15375); settings: EPHA7; read-out: % Inhibition @ 100 nM
468 kinases [23] = target: 468 kinases (Homo sapiens, UniProt Q16584); settings: MLK3; read-out: % Inhibition @ 100 nM
468 kinases [24] = target: 468 kinases (Homo sapiens, UniProt Q8N568); settings: DCAMKL2; read-out: % Inhibition @ 100 nM
468 kinases [25] = target: 468 kinases (Homo sapiens, UniProt Q8NEB9); settings: VPS34; read-out: % Inhibition @ 100 nM
468 kinases [26] = target: 468 kinases (Homo sapiens, UniProt Q8WU08); settings: YANK1; read-out: % Inhibition @ 100 nM
468 kinases [27] = target: 468 kinases (Homo sapiens, UniProt Q9BUB5); settings: MKNK1; read-out: % Inhibition @ 100 nM
468 kinases [28] = target: 468 kinases (Homo sapiens, UniProt Q9BZL6); settings: PRKD2; read-out: % Inhibition @ 100 nM
468 kinases [29] = target: 468 kinases (Homo sapiens, UniProt Q9H093); settings: SNARK; read-out: % Inhibition @ 100 nM
468 kinases [30] = target: 468 kinases (Homo sapiens, UniProt Q9H2X6); settings: HIPK2; read-out: % Inhibition @ 100 nM
468 kinases [31] = target: 468 kinases (Homo sapiens, UniProt Q9P1W9); settings: PIM2; read-out: % Inhibition @ 100 nM
468 kinases [32] = target: 468 kinases (Homo sapiens, UniProt Q9Y616); settings: IRAK3; read-out: % Inhibition @ 100 nM

Row | Structure (SMILES) | inhibition at 0.1 µM (468 kinases [1]) [%] | inhibition at 0.1 µM (468 kinases [2]) [%] | inhibition at 0.1 µM (468 kinases [3]) [%] | inhibition at 0.1 µM (468 kinases [4]) [%] | inhibition at 0.1 µM (468 kinases [5]) [%] | inhibition at 0.1 µM (468 kinases [6]) [%] | inhibition at 0.1 µM (468 kinases [7]) [%] | inhibition at 0.1 µM (468 kinases [8]) [%] | inhibition at 0.1 µM (468 kinases [9]; TYK2(JH1domain-catalytic)) [%] | inhibition at 0.1 µM (468 kinases [9]; TYK2(JH2domain-pseudokinase)) [%] | inhibition at 0.1 µM (468 kinases [10]) [%] | inhibition at 0.1 µM (468 kinases [11]) [%] | inhibition at 0.1 µM (468 kinases [12]) [%] | inhibition at 0.1 µM (468 kinases [13]) [%] | inhibition at 0.1 µM (468 kinases [14]) [%] | inhibition at 0.1 µM (468 kinases [15]) [%] | inhibition at 0.1 µM (468 kinases [16]) [%] | inhibition at 0.1 µM (468 kinases [17]) [%] | inhibition at 0.1 µM (468 kinases [18]) [%] | inhibition at 0.1 µM (468 kinases [19]) [%] | further results
1 | CCN(CC)CCNC(=O)c1c(C)[nH]c(/C=C2\C(=O)Nc3ccc(CCC(N)=O)cc32)c1C [Compound No. 16, (Z)-5-((5-(3-Amino-3-oxopropyl)-2-oxoindolin-3-ylidene)methyl)-N-(2-(diethylamino)ethyl)-2,4-dimethyl-1H-pyrrole-3-carboxamide] | 17 | 66 | 34 | 18 | 64 | 9 | 86 | 0 | 33 | 39 | 0 | 8 | 83 | 85 | 0 | 41 | 36 | 7 | 12 | 0 | inhibition at 0.1 µM (468 kinases [20]): 93.3%; inhibition at 0.1 µM (468 kinases [21]): 50%; inhibition at 0.1 µM (468 kinases [22]): 1%; inhibition at 0.1 µM (468 kinases [23]): 0%; inhibition at 0.1 µM (468 kinases [24]): 3%; inhibition at 0.1 µM (468 kinases [25]): 46%; inhibition at 0.1 µM (468 kinases [26]): 23%; inhibition at 0.1 µM (468 kinases [27]): 31%; inhibition at 0.1 µM (468 kinases [28]): 16%; inhibition at 0.1 µM (468 kinases [29]): 81%; inhibition at 0.1 µM (468 kinases [30]): 99.5%; inhibition at 0.1 µM (468 kinases [31]): 0%; inhibition at 0.1 µM (468 kinases [32]): 100%
2 | CCN(CC)CCNC(=O)c1c(C)[nH]c(/C=C2\C(=O)Nc3ccc(CCO)cc32)c1C [Compound No. 10, (Z)—N-(2-(Diethylamino)ethyl)-5-((5-(2-hydroxyethyl)-2-oxoindolin-3-ylidene)methyl)-2,4-dimethyl-1H-pyrrole-3-carboxamide] | 0 | 42 | 0 | 0 | 0 | 32 | 91.1 | 79 | 1 | 0 | 4 | 0 | 90.4 | 95.5 | 0 | 56 | 0 | 18 | 12 | 0 | inhibition at 0.1 µM (468 kinases [20]): 74%; inhibition at 0.1 µM (468 kinases [21]): 27%; inhibition at 0.1 µM (468 kinases [22]): 0%; inhibition at 0.1 µM (468 kinases [23]): 20%; inhibition at 0.1 µM (468 kinases [24]): 0%; inhibition at 0.1 µM (468 kinases [25]): 25%; inhibition at 0.1 µM (468 kinases [26]): 0%; inhibition at 0.1 µM (468 kinases [27]): 3%; inhibition at 0.1 µM (468 kinases [28]): 0%; inhibition at 0.1 µM (468 kinases [29]): 80%; inhibition at 0.1 µM (468 kinases [30]): 58%; inhibition at 0.1 µM (468 kinases [31]): 8%; inhibition at 0.1 µM (468 kinases [32]): 0%
